Assay results taken from patent US20230233569A1 (Revolution Medicines, Inc., priority 2020, published 2023).
pIC50: −log10 of the molar value.

Experiments:
NCI-H358 (K-Ras G12C) = experiment: CellTiter-Glo cell viability assay, 5-day treatment; assay type: cell-based; settings: Homo sapiens, NCI-H358, 120 h, 5-day treatment; read-out: H358 Cell Viability assay data (K-Ras G12C, IC50)
How it was run: (§1)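 Seeded cells received test compound by direct dispensing. On day 5 the plates sat at room temperature approximately 30 minutes, then luminescence was measured. Data were normalized to DMSO and curve-fitted with four parameters.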

Capan-1 (K-Ras G12V) = experiment: as above; assay type: cell-based; settings: Homo sapiens, CAPAN-1, 120 h, 5-day treatment; read-out: Capan-1 Cell Viability assay data (K-Ras G12V, IC50)
How it was run: as §1

KRAS WT = KRAS WT (Homo sapiens, UniProt P01116+P62937); experiment: Disruption of BRAF RBD interaction with Ras (FRET / MOA assay, with Cyclophilin A); assay type: biochemical; settings: KRAS WT; read-out: KRAS WT FRET data IC50
How it was run: (§2)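 TR-FRET readout: a drop in ratio relative to DMSO wells marks disruption of the K-Ras:BRAF RBD complex via compound-induced K-Ras–Cyclophilin A ternary complex. Dosing used ten 3-fold steps from 30 μM final, 3 h at 25 °C, then Eu-anti-His 10 nM plus APC-anti-GST 50 nM for another 1.5 h. Values are IC50s.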

NRAS G12C = NRAS G12C (Homo sapiens, UniProt P01111+P62937, G12C); experiment: as above; assay type: biochemical; settings: NRAS G12C; read-out: NRAS G12C FRET data IC50
KRAS G12S = KRAS G12S (Homo sapiens, UniProt P01116+P62937, G12S); experiment: as above; assay type: biochemical; settings: read-out: KRAS G12S FRET data, IC50
How it was run: as §2

KRAS G12C = KRAS G12C (Homo sapiens, UniProt P01116+P62937, G12C); experiment: as above; assay type: biochemical; settings: read-out: KRAS G12C FRET data, IC50
How it was run: as §2

KRAS G13C = KRAS G13C (Homo sapiens, UniProt P01116+P62937, G13C); experiment: as above; assay type: biochemical; settings: read-out: KRAS G13C FRET data, IC50
How it was run: as §2

KRAS G12V = KRAS G12V (Homo sapiens, UniProt P01116+P62937, G12V); experiment: as above; assay type: biochemical; settings: KRAS G12V; read-out: KRAS G12V FRET data IC50
How it was run: as §2

KRAS G13D = KRAS G13D (Homo sapiens, UniProt P01116+P62937, G13D); experiment: as above; assay type: biochemical; settings: KRAS G13D; read-out: KRAS G13D FRET data IC50
How it was run: as §2

KRAS G12D = KRAS G12D (Homo sapiens, UniProt P01116+P62937, G12D); experiment: as above; assay type: biochemical; settings: read-out: KRAS G12D FRET data, IC50
How it was run: as §2

KRAS Q61H = KRAS Q61H (Homo sapiens, UniProt P01116+P62937, Q61H); experiment: as above; assay type: biochemical; settings: KRAS Q61H; read-out: KRAS Q61H FRET data IC50
How it was run: (§3)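 IC50 reflects compound-driven Ras:Cyclophilin A ternary complex displacing BRAF RBD, read as lowered TR-FRET ratio relative to DMSO after Eu anti-His (10 nM) and APC anti-GST (50 nM) detection for 1.5 h. Prior incubation 3 h, 25° C, with 12.5 nM GMPPNP-loaded Ras, 50 nM BRAF RBD, 25 μM Cyclophilin A; top compound 30 μM.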

NRAS Q61R = NRAS Q61R (Homo sapiens, UniProt P01111+P62937, Q61R); experiment: as above; assay type: biochemical; settings: NRAS Q61R; read-out: NRAS Q61R FRET data IC50
How it was run: as §3

NRAS WT = NRAS WT (Homo sapiens, UniProt P01111+P62937); experiment: as above; assay type: biochemical; settings: NRAS WT; read-out: NRAS WT FRET data IC50
How it was run: as §3

NRAS Q61K = NRAS Q61K (Homo sapiens, UniProt P01111+P62937, Q61K); experiment: as above; assay type: biochemical; settings: NRAS Q61K; read-out: NRAS Q61K FRET data IC50
How it was run: as §3

Chain of KRAS Q61H (P01116 1-169 isoform P01116-2 Q61H limits assumed): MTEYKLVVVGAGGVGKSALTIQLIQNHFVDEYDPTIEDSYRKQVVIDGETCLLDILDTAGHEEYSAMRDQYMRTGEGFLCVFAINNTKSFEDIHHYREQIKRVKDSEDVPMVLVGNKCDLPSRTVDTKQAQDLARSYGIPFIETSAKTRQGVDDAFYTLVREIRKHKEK
Chain of KRAS Q61H (P62937 whole entry): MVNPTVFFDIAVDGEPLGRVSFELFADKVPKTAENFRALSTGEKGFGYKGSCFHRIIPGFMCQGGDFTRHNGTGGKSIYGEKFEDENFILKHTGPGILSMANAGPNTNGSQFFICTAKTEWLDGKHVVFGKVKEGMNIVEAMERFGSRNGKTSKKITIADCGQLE
Chain of NRAS Q61K (P01111 whole entry Q61K): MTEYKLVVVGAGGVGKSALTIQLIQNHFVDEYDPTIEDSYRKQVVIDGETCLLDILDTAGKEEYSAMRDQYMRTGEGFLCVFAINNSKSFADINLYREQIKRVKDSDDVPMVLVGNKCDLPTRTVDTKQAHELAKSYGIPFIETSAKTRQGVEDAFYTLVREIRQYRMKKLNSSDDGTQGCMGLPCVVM
Chain of NRAS Q61K (P62937 whole entry): as the sequence (P62937 whole entry) above
Chain of NRAS Q61R (P01111 whole entry Q61R): as the sequence (P01111 whole entry Q61K) above, with K61R counted along it
Chain of NRAS Q61R (P62937 whole entry): as the sequence (P62937 whole entry) above
Chain of KRAS G12D (P01116 1-169 isoform P01116-2 G12D limits assumed): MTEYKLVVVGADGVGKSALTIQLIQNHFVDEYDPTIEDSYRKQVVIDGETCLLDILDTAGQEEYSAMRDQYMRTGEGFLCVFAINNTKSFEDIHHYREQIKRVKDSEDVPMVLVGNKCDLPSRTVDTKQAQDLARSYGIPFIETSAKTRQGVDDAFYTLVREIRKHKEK
Chain of KRAS G12D (P62937 whole entry): as the sequence (P62937 whole entry) above
Chain of KRAS WT (P01116 1-169 isoform P01116-2 limits assumed): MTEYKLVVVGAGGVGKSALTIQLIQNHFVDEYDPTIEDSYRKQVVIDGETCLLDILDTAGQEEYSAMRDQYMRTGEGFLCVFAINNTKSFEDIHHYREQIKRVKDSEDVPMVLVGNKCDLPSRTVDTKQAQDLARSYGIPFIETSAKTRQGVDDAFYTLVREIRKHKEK
Chain of KRAS WT (P62937 whole entry): as the sequence (P62937 whole entry) above
Chain of NRAS G12C (P01111 whole entry G12C): as the sequence (P01111 whole entry Q61K) above, with G12C, K61Q counted along it
Chain of NRAS G12C (P62937 whole entry): as the sequence (P62937 whole entry) above
Chain of NRAS WT (P01111 whole entry): as the sequence (P01111 whole entry Q61K) above, with K61Q counted along it
Chain of NRAS WT (P62937 whole entry): as the sequence (P62937 whole entry) above
Chain of KRAS G13D (P01116 1-169 isoform P01116-2 G13D limits assumed): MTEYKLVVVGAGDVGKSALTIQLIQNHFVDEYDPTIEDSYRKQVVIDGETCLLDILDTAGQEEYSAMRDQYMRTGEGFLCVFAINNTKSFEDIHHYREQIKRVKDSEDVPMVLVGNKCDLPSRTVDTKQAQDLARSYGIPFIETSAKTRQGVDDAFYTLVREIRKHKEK
Chain of KRAS G13D (P62937 whole entry): as the sequence (P62937 whole entry) above
Chain of KRAS G12S (P01116 1-169 isoform P01116-2 G12S limits assumed): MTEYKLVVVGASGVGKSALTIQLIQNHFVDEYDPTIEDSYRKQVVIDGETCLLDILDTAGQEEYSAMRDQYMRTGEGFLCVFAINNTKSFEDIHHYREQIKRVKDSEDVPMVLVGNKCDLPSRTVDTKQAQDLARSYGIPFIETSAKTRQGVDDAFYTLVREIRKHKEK
Chain of KRAS G12S (P62937 whole entry): as the sequence (P62937 whole entry) above
Chain of KRAS G12V (P01116 1-169 isoform P01116-2 G12V limits assumed): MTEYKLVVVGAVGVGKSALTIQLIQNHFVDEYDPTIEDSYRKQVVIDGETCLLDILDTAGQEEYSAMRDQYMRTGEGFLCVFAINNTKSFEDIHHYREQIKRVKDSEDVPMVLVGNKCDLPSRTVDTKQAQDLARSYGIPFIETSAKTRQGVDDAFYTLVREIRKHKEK
Chain of KRAS G12V (P62937 whole entry): as the sequence (P62937 whole entry) above
Chain of KRAS G12C (P01116 1-169 isoform P01116-2 G12C): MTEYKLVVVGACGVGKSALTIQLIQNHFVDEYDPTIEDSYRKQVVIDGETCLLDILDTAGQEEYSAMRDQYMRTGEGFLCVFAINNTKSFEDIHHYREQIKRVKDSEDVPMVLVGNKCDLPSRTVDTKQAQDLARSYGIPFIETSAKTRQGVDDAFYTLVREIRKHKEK
Chain of KRAS G12C (P62937 whole entry): as the sequence (P62937 whole entry) above
Chain of KRAS G13C (P01116 1-169 isoform P01116-2 G13C): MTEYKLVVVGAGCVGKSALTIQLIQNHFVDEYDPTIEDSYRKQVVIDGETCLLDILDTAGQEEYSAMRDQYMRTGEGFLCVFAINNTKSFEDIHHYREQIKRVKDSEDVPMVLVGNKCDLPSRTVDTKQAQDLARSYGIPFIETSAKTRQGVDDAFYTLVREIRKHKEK
Chain of KRAS G13C (P62937 whole entry): as the sequence (P62937 whole entry) above

Row | SMILES | pIC50 (NCI-H358 (K-Ras G12C)) | pIC50 (Capan-1 (K-Ras G12V)) | pIC50 (KRAS WT) | pIC50 (NRAS G12C) | pIC50 (KRAS G12S) | pIC50 (KRAS G12C) | pIC50 (KRAS G13C) | pIC50 (KRAS G12V) | pIC50 (KRAS G13D) | pIC50 (KRAS G12D) | pIC50 (KRAS Q61H) | pIC50 (NRAS Q61R) | pIC50 (NRAS WT) | pIC50 (NRAS Q61K)
1 | CCn1c(-c2cccnc2[C@H](C)OC)c2c3cc(ccc31)-c1csc(n1)C[C@H](NC(=O)[C@H](C(C)C)N(C)C(=O)N1CCC[C@H]1CN(C)C)C(=O)N1CCC[C@H](N1)C(=O)OCC(C)(C)C2 [Example A519] | 5.00 to 6.00 | 5.00 to 6.00 | 6.00 to 7.00 | 6.00 to 7.00 | 5.00 to 6.00 | 6.00 to 7.00 | 5.00 to 6.00 | 5.00 to 6.00 | 5.00 to 6.00 | 5.00 to 6.00 | 6.00 to 7.00 | 5.00 to 6.00 | 6.00 to 7.00 | 5.00 to 6.00
2 | CCn1c(-c2cc(N3CCN(C)CC3)cnc2[C@H](C)OC)c2c3cc(ccc31)-c1csc(n1)C[C@H](NC(=O)[C@H](C(C)C)N(C)C(=O)N(C)C)C(=O)N1CCC[C@H](N1)C(=O)OCC(C)(C)C2 (atropisomer, axis not shown) [Example A277, (2S)—N-((6^3S,4S,Z)-1^1-ethyl-1^2-(2-((S)-1-methoxyethyl)-5-(4-methylpiperazin-1-yl)pyridin-3-yl)-10,10-dimethyl-5,7-dioxo-6^1,6^2,6^3,6^4,6^5,6^6-hexahydro-1^1H-8-oxa-2(4,2)-thiazola-1(5,3)-indola-6(1,3)-pyridazinacycloundecaphane-4-yl)-3-methyl-2-(1,3,3-trimethylureido)butanamide] | > 8.00 | > 8.00 | 7.00 to 8.00 | 7.00 to 8.00 | 7.00 to 8.00 | 7.00 to 8.00 | 7.00 to 8.00 | 7.00 to 8.00 | 7.00 to 8.00 | 6.00 to 7.00 | 7.00 to 8.00 | 7.00 to 8.00 | 7.00 to 8.00 | 7.00 to 8.00
3 | CCn1c(-c2cccnc2[C@H](C)OC)c2c3cc(ccc31)-c1csc(n1)C[C@H](NC(=O)[C@H](C(C)C)N(C)C(=O)N1CC(CO)C1)C(=O)N1CCC[C@H](N1)C(=O)OCC(C)(C)C2 (atropisomer, axis not shown) [Example A356] | > 8.00 | 7.00 to 8.00 | 6.00 to 7.00 | 7.00 to 8.00 | 6.00 to 7.00 | 7.00 to 8.00 | 6.00 to 7.00 | 6.00 to 7.00 | 6.00 to 7.00 | 6.00 to 7.00 | 7.00 to 8.00 | 7.00 to 8.00 | 7.00 to 8.00 | 7.00 to 8.00
4 | CCn1c(-c2cccnc2[C@H](C)OC)c2c3cc(ccc31)-c1csc(n1)C[C@H](NC(=O)[C@H](C(C)C)N(C)C(=O)N1C3CC1CN(C)C3)C(=O)N1CCC[C@H](N1)C(=O)OCC(C)(C)C2 [Example A541] | 7.00 to 8.00 | 6.00 to 7.00 | 6.00 to 7.00 | 6.00 to 7.00 | 6.00 to 7.00 | 6.00 to 7.00 | 6.00 to 7.00 | 6.00 to 7.00 | 5.00 to 6.00 | 5.00 to 6.00 | 6.00 to 7.00 | 6.00 to 7.00 | 6.00 to 7.00 | 6.00 to 7.00
5 | CCn1c(-c2cccnc2[C@H](C)OC)c2c3cc(ccc31)-c1csc(n1)C[C@H](NC(=O)[C@H](C(C)C)N(C)C(=O)N1CC(N(C)C3CC3)C1)C(=O)N1CCC[C@H](N1)C(=O)OCC(C)(C)C2 (atropisomer, axis not shown) [Example A285] | 7.00 to 8.00 | 7.00 to 8.00 | 6.00 to 7.00 | 7.00 to 8.00 | 6.00 to 7.00 | 7.00 to 8.00 | 6.00 to 7.00 | 6.00 to 7.00 | 6.00 to 7.00 | 6.00 to 7.00 | 7.00 to 8.00 | 6.00 to 7.00 | 6.00 to 7.00 | 7.00 to 8.00
6 | CCn1c(-c2cccnc2[C@H](C)OC)c2c3cc(ccc31)-c1csc(n1)C[C@H](NC(=O)[C@H](C(C)C)N(C)C(=O)N1CC3(CN(C)CCO3)C1)C(=O)N1CCC[C@H](N1)C(=O)OCC(C)(C)C2 [Example A499] | 7.00 to 8.00 | 7.00 to 8.00 | 5.00 to 6.00 | 6.00 to 7.00 | 5.00 to 6.00 | 6.00 to 7.00 | 5.00 to 6.00 | 5.00 to 6.00 | 5.00 to 6.00 | 5.00 to 6.00 | 6.00 to 7.00 | 6.00 to 7.00 | 5.00 to 6.00 | 6.00 to 7.00
7 | CCn1c(-c2cccnc2[C@H](C)OC)c2c3cc(ccc31)-c1csc(n1)C[C@H](NC(=O)[C@H](C(C)C)N(C)C(=O)N1CCC13CCOCC3)C(=O)N1CCC[C@H](N1)C(=O)OCC(C)(C)C2 (atropisomer, axis not shown) [Example A601] | 7.00 to 8.00 | 7.00 to 8.00 | 6.00 to 7.00 | 7.00 to 8.00 | 6.00 to 7.00 | 7.00 to 8.00 | 6.00 to 7.00 | 6.00 to 7.00 | 6.00 to 7.00 | 6.00 to 7.00 | 7.00 to 8.00 | 7.00 to 8.00 | 6.00 to 7.00 | 7.00 to 8.00
8 | CCn1c(-c2cccnc2[C@H](C)OC)c2c3cc(ccc31)-c1csc(n1)C[C@H](NC(=O)[C@H](C(C)C)N(C)C(=O)O[C@H]1CCOC1)C(=O)N1CCC[C@H](N1)C(=O)OCC(C)(C)C2 [Example A210] | 6.00 to 7.00 | 7.00 to 8.00 | 6.00 to 7.00 | 6.00 to 7.00 | 5.00 to 6.00 | 6.00 to 7.00 | 5.00 to 6.00 | 5.00 to 6.00 | 5.00 to 6.00 | 5.00 to 6.00 | 6.00 to 7.00 | 6.00 to 7.00 | 6.00 to 7.00 | 6.00 to 7.00
